# Experimental data: patent publication US6740335B1, “Liposomal camptothecin formulations” (priority 1997, dated 2004)
# Where a name gives a salt, the structure may show the parent alone.
# Assays:
# [1] = system: KBV Head/Neck Tumor MDR +; format: in vivo
# Method: (§1) In all the studies performed, subcutaneous tumors implanted on the anterior flank of nude mice were allowed to grow to an established size of 200+/−50 mm^3 prior to dosing drugs.
# (§2) The xenograft models included the HT29 and SW48 human colon tumor lines, and the KB and KBV head-neck tumors. Drugs were dosed at either 6 or 9 mg/kg intravenously, on a weekly schedule for 3 consecutive weeks. In the SW48 xenograft study, the animals received a total of two cycles of therapy (6 injections), with a 10 day recovery period separating the two therapeutic courses. In the HT29 xenograft study a 12 and 14 mg/kg dose group was added.
# [2] = system: KB Head/Neck Tumor; assay: Xenograft efficacy at identical dose, KB; format: in vivo, nude mice; details: for Log 10 Cell Kill / T-C (time to reach 1,000% Tumor Volume, treated vs control): QD7 × 3; for % TGI: QD7 × 3, day 22
# Method: as §1, §2
# [3] = system: A549 (lung carcinoma); assay: 3H-thymidine incorporation cytotoxicity assay, A549; format: cell-based; details: Homo sapiens, A549, 42 h; read-out: Median IC50
# Method: (§3) In vitro efficacy screening has been performed using GI147211 and liposomal formulations of GI147211. […] Standard tumor cell-based cytototoxicity assays assessing ^3H-thymidine incorporation were performed.
# (§4) Tumor cells were seeded into 96-well tissue culture plates (1×10^4 cells/well)≡4 h prior to experimentation. […] Positive and negative (Tris treated) control groups were included on each assay plate. Tumor cells were then labeled with 0.25 μCi of [methyl-^3H] thymidine and incubated for 42 h under tissue culture conditions (37° C., 5% CO2, 100% relative humidity), except for C6, U251, A673 and B16-F1 cells which were incubated for 24 h. Cells were then lysed, harvested onto glass-fiber filters and unincorporated [methyl-^3H] thymidine removed by filter washing. Filters were processed for scintillation counting and cpm-^3H/well determined. […] Data are presented from multiple sets of experimentation, involving multiple liposomal formulations of GI147211.
# [4] = system: SW48 human colon tumor; assay: Xenograft efficacy at identical dose, SW48; format: in vivo, nude mice; details: SW48, 9 mg/kg, QD7 × 3, two cycles; for % TGI: day 35, dihydrochloride
# Method: as §1, §2
# [5] = system: KB Tumor Xenograft; assay: Repeat dose efficacy, KB xenograft; format: in vivo, nude mice; details: 14 mg/kg
# Method: (§5) Drugs were dosed on days 1,8 and 15.
# [6] = system: U87-MG (Astrocytoma); assay: 3H-thymidine incorporation cytotoxicity assay, U87-MG; format: cell-based, human; details: Homo sapiens, U-87 MG, 42 h, read-out: Median IC50
# Method: as §3, §4
# [7] = system: U251 (Glioblastoma); assay: 3H-thymidine incorporation cytotoxicity assay, U251; format: cell-based, human; details: Homo sapiens, U-251; U251, 24 h; read-out: Median IC50
# Method: as §3, §4
# [8] = system: KBV (oralpharyngial carcinoma, vincristine resistant phenotype); assay: 3H-thymidine incorporation cytotoxicity assay, KBV; format: cell-based, human; details: Homo sapiens, 42 h, read-out: Median IC50
# Method: as §3, §4
# [9] = system: MCF-7 (Breast); assay: 3H-thymidine incorporation cytotoxicity assay, MCF-7; format: cell-based, human; details: Homo sapiens, MCF7; MCF-7, 42 h; read-out: Median IC50
# Method: as §3, §4
# [10] = system: DU-145 (prostate carcinoma); assay: 3H-thymidine incorporation cytotoxicity assay, DU-145; format: cell-based, human; details: Homo sapiens, DU-145, 42 h; read-out: Median IC50
# Method: as §3, §4
# [11] = Plasma pharmacokinetics in Sprague-Dawley rats after IV dose; details: rat, in vivo
# Method: The pharmacokinetics were then compared for free drug and membrane entrapped GI147211 liposomes dosed at 5 mg/kg in Sprague Dawley rats. Rats were dosed at 1 mg/kg to compare free GI147211 to passive and actively loaded liposomes.
# Pharmacokinetic studies were carried out on various liposomal formulations of GI147211 in rats and mice by IV bolus administration. Plasma samples were precipitated with acetonitrile and the supematant for each sample was analyzed by reverse phase HPLC using isocratic elution and monitoring fluorescence. […] Concentration values were determined for unknown samples and quality control samples based on interpolation using a linear fit of the standard samples. In each study the average plasma concentration at each time point was calculated and utilized in the pharmacokinetic analysis. Noncompartmental analysis were carried out using WinNonlin™ (Standard Edition, version 1.5 ©, Scientific Consulting, Inc.) and the following parameters were calculated: the maximum concentration extrapolated at zero time (Cmax), the area under the curve from zero to infinite time (AUC total), the terminal phase half life (t½), the clearance rate (C1), and the volume of distribution at steady state (Vss).
# [12] = system: HT29 human colon tumor; assay: Xenograft efficacy at identical dose, HT29; format: in vivo; details: for Log 10 Cell Kill / T-C (time to reach 1,000% Tumor Volume, treated vs control): QD7 × 3; for % TGI: QD7 × 3, day 26
# Method: as §1, §2
# [13] = system: MDR + , KBV Xenograft; assay: Repeat dose efficacy at equal toxic doses, KBV xenograft; format: in vivo, nude mice; details: days 1, 8 and 15
# Method: as §5
# [14] = system: LS-513 (Cecum); assay: 3H-thymidine incorporation cytotoxicity assay, LS-513; format: cell-based, human; details: Homo sapiens, LS-513, 42 h; read-out: Median IC50
# Method: as §3, §4
# [15] = system: ES2 Tumor Xenograft; assay: Repeat dose efficacy at equal toxic doses, ES2 xenograft; details: ES2, 14 mg/kg, days 1, 8 and 15
# Method: as §1, §5
structure (smiles),measurement,setting,value
"CCC1(O)C(=O)OCc2c1cc1n(c2=O)Cc2c-1nc1cc3c(cc1c2CN1CCN(C)CC1)OCCO3 (stereo in doubt) [GI147211, 7-(4-methylpiperazinomethylene)-10,11-ethylenedioxy-20(S)-camptothecin dihydrochloride]",Log 10 Cell Kill,"[1]; KBV, 9 mg/kg iv, QD7 × 3",0.125
same,"T-C (time to reach 1,000% Tumor Volume, treated vs control)","[1]; KBV, 9 mg/kg iv, QD7 × 3",2 days
same,% TGI,"[1]; KBV, 9 mg/kg iv, QD7 × 3, day 18",11%
same,activity in the MDR+ tumor model KBV,[1]; identical dose and schedule,essentially inactive
same,Log 10 Cell Kill,[2]; 6 mg/kg iv,0.87
same,"T-C (time to reach 1,000% Tumor Volume, treated vs control)",[2]; 6 mg/kg iv,9 days
same,% TGI,[2]; 6 mg/kg iv,54%
same,Log 10 Cell Kill,[2]; 9 mg/kg iv,1.64
same,"T-C (time to reach 1,000% Tumor Volume, treated vs control)",[2]; 9 mg/kg iv,17 days
same,% TGI,[2]; 9 mg/kg iv,73%
same,IC50,[3],6.94 ng/mL
same,Log 10 Cell Kill,[4],1.9
same,"T-C (time to reach 1,000% Tumor Volume, treated vs control)",[4],40 days
same,% TGI,[4],86%
same,% TGI,[4]; listed as free drug,86%
same,% TGI,[5]; day 15,83%
same,Mean Tumor Volume +/− (SD),"[5]; days 1, 8 and 15",275 (67)
same,Toxic Deaths,"[5]; days 1, 8 and 15",0/8
same,IC50,[6],2.36 ng/mL
same,IC50,[7],3.11 ng/mL
same,IC50,[8],584 ng/mL
same,IC50,[9],44.1 ng/mL
same,IC50,[10],1.61 ng/mL
same,AUC,[11]; 1 mg/kg,136 ng·h/mL
same,Cmax,[11]; 1 mg/kg,100 ng/mL
same,Vd,[11]; 1 mg/kg,9.23 L/kg
same,clearance,[11]; 1 mg/kg,123 mL/min/kg
same,half-life,[11]; 1 mg/kg,1.17 h
same,AUC,[11]; 5 mg/kg,640 ng·h/mL
same,Cmax,[11]; 5 mg/kg,690 ng/mL
same,clearance,[11]; 5 mg/kg,132 mL/min/kg
same,half-life,[11]; 5 mg/kg,2.45 h
same,Log 10 Cell Kill,"[12]; HT29, 6 mg/kg iv",0.753
same,"T-C (time to reach 1,000% Tumor Volume, treated vs control)","[12]; HT29, 6 mg/kg iv",12 days
same,% TGI,"[12]; HT29, 6 mg/kg iv",48%
same,Log 10 Cell Kill,"[12]; HT29, 9 mg/kg iv",0.753
same,"T-C (time to reach 1,000% Tumor Volume, treated vs control)","[12]; HT29, 9 mg/kg iv",12 days
same,% TGI,"[12]; HT29, 9 mg/kg iv, dihydrochloride",54%
same,% TGI,"[12]; HT29, 9 mg/kg iv, listed as free drug, dihydrochloride",54%
same,Log 10 Cell Kill,"[12]; HT29, 12 mg/kg iv",0.815
same,"T-C (time to reach 1,000% Tumor Volume, treated vs control)","[12]; HT29, 12 mg/kg iv",13 days
same,% TGI,"[12]; HT29, 12 mg/kg iv",70%
same,Log 10 Cell Kill,"[12]; HT29, 14 mg/kg iv",1.94
same,"T-C (time to reach 1,000% Tumor Volume, treated vs control)","[12]; HT29, 14 mg/kg iv",31 days
same,% TGI,"[12]; HT29, 14 mg/kg iv",78%
same,Days to 1000%,[13]; 12 mg/kg,16.15 days
same,Log 10 Cell Kill,[13]; 12 mg/kg,0.53
same,T − C,[13]; 12 mg/kg,7.58
same,Toxic Deaths,[13]; 12 mg/kg,3
same,Days to 1000%,[13]; 14 mg/kg,17 days
same,Log 10 Cell Kill,[13]; 14 mg/kg,0.59
same,T − C,[13]; 14 mg/kg,8.43
same,Toxic Deaths,[13]; 14 mg/kg,3
same,Days to 1000%,[13]; 16 mg/kg,17 days
same,Log 10 Cell Kill,[13]; 16 mg/kg,0.59
same,T − C,[13]; 16 mg/kg,8.43
same,Toxic Deaths,[13]; 16 mg/kg,1
same,IC50,[14],4.89 ng/mL
same,Cures,[15],1
same,Log Cell Kill,[15],2.14
same,Maximum Body Weight loss,[15],9%
same,T − C (to reach 400% tumor volume increase),[15],27 days
same,Toxic Deaths,[15],3
